“Also recorded” adds a separate entry of the source.

The text below walks through data of patent US5157032A, “Mixed ligand complexes and uses thereof as binding agents and probes to DNA” (The Trustees of Columbia University In The City of New York, priority 1990, dated 1992).

Series [1] concerns DNA. The series can be described thus: Luminescence in presence of DNA (preliminary). It counts as binding. The note with it: in words. An excerpt: Ru(phen)2 (dppz)^2+, and Ru(dip)2 (dppz)^2+ seem have similar behavior as described above. […] We are presently tethering this complexes, Ru(bpy)2 (dppz)^2+, Ru(dppz)2 phen^2+, and Ru(phen)2 (dppz)^2+ to oligonucleotides to develop non-radioactive luminescent DNA probes for both heterogeneous and homogeneous assay systems. The probes, constructed in this way should luminesce only upon finding its target sequence.

Series [2] has as its system electrophoresed DNA in agarose gel. Kind of series: Staining of DNA in agarose gels. Particulars: in words. The source says: One interesting application is the binding of this complex to DNA that has been electrophoresed in a agarose gel.
For series [3], the system named is pBR322 DNA. The note with it: reference intercalator; cited from earlier work.
In series [4] the test system is distamycin binding sites on end-labeled DNA fragment. The series can be described thus: Footprinting of distamycin.
Series [5] relates to EcoRI site on end-labeled DNA fragment. The series can be described thus: Footprinting of EcoRI. It counts as binding. Particulars: in words.
The test system of series [6] is distamycin binding sites on end-labeled DNA fragment. The note with it: cited from earlier work.
Series [7] deals with calf thymus DNA. Kind of series: Equilibrium dialysis of racemic complexes against calf thymus DNA (Scatchard, dialysate CD). It counts as binding. The note with it: in words. As for the experimental part:
Equilibrium Dialysis: Equlibrium dialysis of the reacemic metal complexes was perforemd against calf-thymus DNA using procedures described previously. (74) The buffer used was 5 mM Tris, 50 mM NaCl at pH 7.5. Samples were agitated on a shaker bath during equilibration which occurred after three to five days, as determined by control samples containing no DNA. After equilibration, volumes of liquid inside and outside the dialysis bags were determined (approximately 1 and 3 mls, respectively) and circular dichroism of the dialysate was meaxured on a Jasco J-40 spectropolarimeter. Final ruthenium concentration inside and outside the bags were measured by visible absorbance. Data anaylsis was performed on a VAX-780 using non-linear least squares analysis.
Equilibrium Dialysis: Equilibrium binding constants for the metal complexes with DNA may be determined classically by equilibrium dialysis. Calf thymus DNA was dialyzed against the series of mixed ligand complexes using a broad range of ruthenium concentrations. […] The results have been plotted according to Scatchard (88), where r is the ratio of bound metal to DNA-phosphate concentration, and cf is the concentration of free metal complex. The data were fit by non-linear least squares analysis to the McGhee and von Hippel equation (8945) governing random non-cooperative binding to a lattice,
where r is the ratio of bound concentration of ruthenium to the concentration of DNA-phosphate, cf is the concentration of ruthenium free in soltuion, Kb the intrinsic binding constant, and the integer /, which measures the degree of anti-cooperativeity, is the size of a binding site in base pairs. The curves shown reflect the best fit after variation of two parameters: the intrinsic binding constant, Kb, and binding stie size, /. For those complexes were cooperatively was observed, the equation (89) incorporating a cooperativity parameter was used.
Equilibrium dialysis experiments additionally offer the opportunity to examine any enantiomeric selectivities associated with binding. After dialysis of the DNA against the racemic mixture, optical activity observed in the dialysate refelects an enrichment in the dialysate in the less favored enantiomer. For most of the complexes, optical activity was found in the dialysate. Values for the extent of enantiomeric selectivity could not be quanitated in the absence of determinations of DE and assignments of absolute configuration. Assuming that the signs of the circular chroism in the ultraviolet ligand bands are the same for the these ligands as that for the parent phenanthroline complex, (90) we have assigned the absolute configuration of these complexes by comparison to spectra for enantiomers of Ru(phen)3^2+ and have compared levels of enantioselectivity qualitatively through measurements of circular dichroic intensity per rutheium bound. Based upon these assumptions, we find enantionmeric selectivities for the polyridyl complexes to reflect an enrichment in the isomer in the dialysate and the preferential binding of the isomer to the right-handed DNA. This observation is consistent with the preferential intercalation of isomers found earlier for Ru(phen)3^2+ in right-handed B-DNA. (63) We may also compare relative enantioselectivities for different ancillary ligands. […] The same comparison may be seen qualitatively between Ru(phen)2 DIP^2+ and Ru(bpy)2 DIP^2+.
On the technique in general: In equilibrium dialysis free small molecules cross a membrane that holds back macromolecules.

Series [8] is described as follows: Stability / handling. The note with it: in words. It counts as physicochemical.
Series [9] has as its system EcoRI site on end-labeled DNA fragment. Particulars: cited from earlier work.

Consider `[Ru+2].c1ccc2nc3c4cccnc4c4ncccc4c3nc2c1.c1cnc2c(c1)ccc1cccnc12.c1cnc2c(c1)ccc1cccnc12` [Ru(phen)2 (dppz)^2+], for which the “luminescence dependence on DNA” value in series [1] is “luminesce only in the presence of DNA but not in the presence of H2 O (or Buffer) alone”.
Take `CC[n+]1c(-c2ccccc2)c2cc(N)ccc2c2ccc(N)cc21` [ethidium, reference compound]: in [2], the “staining of DNA in agarose gels” value is “found to stain DNA imbedded in the agarose gels”. In addition, the Unwinding Angle in series [3] was 26 °.
`[Cu+].c1cnc2c(c1)ccc1cccnc12.c1cnc2c(c1)ccc1cccnc12` [Cu(phen)2 +]: the “footprint quality, distamycin” value in series [4] (in words) was “lacks the necessary sequence neutrality”. Moreover, in [5], the “footprint quality, EcoRI” value is on record as “failed to footprint the protein”. Further, the “3'-shift of distamycin footprint” value in [6] (comparison reagents) is listed as 2-3 pair.
Take `Cn1cc(NC(=O)c2cc(NC(=O)c3cc(NC=O)cn3C)cn2C)cc1C(=O)NCCC(=N)N` [distamycin]: the “distamycin binding sites footprinted” value in series [4] (by Rh(phi)2 (bpy)^3+, 5'-end-labeled fragment) was “strong A6 binding site (41-47 bp); also recorded: AATT (67-70, 119-12), TAAT (73-76), AAATT (101-105), and TTAT (107-110)”. Further, in series [6] (cited crystallography), the “binding site size by crystal structure” value is recorded as “six”.
As to `[Ru+2].c1ccc(-c2ccnc3c2ccc2c(-c4ccccc4)ccnc23)cc1.c1ccc(-c2ccnc3c2ccc2c(-c4ccccc4)ccnc23)cc1.c1ccc2nc3c4cccnc4c4ncccc4c3nc2c1` [Ru(dip)2 (dppz)^2+], the “luminescence dependence on DNA” value in [1] is “luminesce only in the presence of DNA but not in the presence of H2 O (or Buffer) alone”.
Take `N=C1C(=N)c2ccccc2-c2ccccc21.N=C1C(=N)c2ccccc2-c2ccccc21.N=C1C(=N)c2ccccc2-c2ccccc21.[Ru+2]` [Ru(phi)3^2+]: the aggregation in solution result in [7] was “extensive aggregation”. Moreover, the stability result in [8] is “does not decompose upon exposure to air or by continuous irradiation with visible light”.
With EcoRI: restriction endonuclease EcoRI, the “crystal binding site size” value in series [9] (cited crystallography) is given as “ten”. Further, the “DNA contact length of EcoRI” value in series [9] (x-ray co-crystal) was 10 base pairs.
